Results as given in patent publication US6620828B2, “Thiazole compounds and pharmaceutical compositions for inhibiting protein kinases and methods for their use” (Agouron Pharmaceuticals, Inc., priority 1999, dated 2003).

System: human umbilical vein endothelial cells (HUVEC)
Assay: HUVEC proliferation assay
Type: cell-based
Details: Homo sapiens, HUVEC, crude combinatorial amide library; for inhibition at 0.15 µM: Table I screening results, 150 nM; for inhibition at 0.001 µM / inhibition at 0.01 µM: Table II screening results; for inhibition at 0.001 µM: 1 nM; for inhibition at 0.01 µM: 10 nM, read-out: % inhibition @ 10 nM
How it was run: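 Readout was MTT dye reduction (A595) after 72 h of stimulation with VEGF at 6 ng/ml final. Compound, in 0.1% DMSO final, was added 1 h before VEGF to HUVEC starved 24 h in 1% FBS. % inhibition was scaled between VEGF-alone and unstimulated wells; IC50 was fitted from triplicate dose curves.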

| Structure (SMILES) | inhibition at 0.15 µM [%] | inhibition at 0.001 µM [%] | inhibition at 0.01 µM [%] |
| --- | --- | --- | --- |
| COc1cc(Nc2nc(N)c(-c3nc(-c4cccc(NC(=O)c5c(-c6ccccc6)noc5C)c4)cs3)s2)cc(OC)c1OC | 5 | – | – |
| COc1cc(Nc2nc(N)c(-c3nc(-c4cccc(NC(=O)c5ccc(N6N=C(C)CC6=O)cc5)c4)cs3)s2)cc(OC)c1OC | 0 | – | – |
| COc1cc(Nc2nc(N)c(-c3nc(-c4cccc(NC(=O)C(O)(c5ccccc5)c5ccccc5)c4)cs3)s2)cc(OC)c1OC | -8 | – | – |
| COc1cc(Nc2nc(N)c(-c3nc(-c4cccc(NC(=O)c5cc(C(C)(C)C)cc(C(C)(C)C)c5)c4)cs3)s2)cc(OC)c1OC | -12 | – | – |
| CNC(=O)Nc1nc(N)c(-c2nc(-c3cccc(NC(=O)c4ccccc4)c3)cs2)s1 | – | -8 | -40 |
| CNC(=O)Nc1nc(N)c(-c2nc(-c3cccc(NC(=O)CC4CC5CCC4C5)c3)cs2)s1 (stereo not shown) | – | 0 | 93 |
| CNC(=O)Nc1nc(N)c(-c2nc(-c3cccc(NC(=O)CCN4CCCCC4)c3)cs2)s1 | – | 1 | -26 |
| CNC(=O)Nc1nc(N)c(-c2nc(-c3cccc(NC(=O)C(C)C)c3)cs2)s1 | – | 10 | -45 |
| CNC(=O)Nc1nc(N)c(-c2nc(-c3cccc(NC(=O)C(O)CC(C)C)c3)cs2)s1 (stereo not shown) | – | -18 | 2 |
| CNC(=O)Nc1nc(N)c(-c2nc(-c3cccc(NC(=O)c4ccc(=O)oc4)c3)cs2)s1 | – | -4 | 30 |
| CNC(=O)Nc1nc(N)c(-c2nc(-c3cccc(NC(=O)c4cccc5[nH]ccc45)c3)cs2)s1 | – | -3 | 2 |
| CNC(=O)Nc1nc(N)c(-c2nc(-c3cccc(NC(=O)CCCN(C)C)c3)cs2)s1 | – | -12 | -40 |
| C=CCC(=O)Nc1cccc(-c2csc(-c3sc(NC(=O)NC)nc3N)n2)c1 | – | 8 | -13 |
| CNC(=O)Nc1nc(N)c(-c2nc(-c3cccc(NC(=O)C4CCN(C(C)=O)CC4)c3)cs2)s1 | – | 23 | -15 |
| CNC(=O)Nc1nc(N)c(-c2nc(-c3cccc(NC(=O)C4CCOC4)c3)cs2)s1 (stereo not shown) | – | -5 | -8 |
| CNC(=O)Nc1nc(N)c(-c2nc(-c3cccc(NC(=O)/C=C/c4cccc(OC)c4)c3)cs2)s1 | – | -1 | -12 |
| CNC(=O)Nc1nc(N)c(-c2nc(-c3cccc(NC(=O)C(O)c4ccccc4)c3)cs2)s1 (stereo not shown) | – | -14 | -11 |
| CNC(=O)Nc1nc(N)c(-c2nc(-c3cccc(NC(=O)C(=O)Cc4ccccc4)c3)cs2)s1 | – | 8 | 25 |
| CNC(=O)Nc1nc(N)c(-c2nc(-c3cccc(NC(=O)C4C(C=C(C)C)C4(C)C)c3)cs2)s1 (stereo not shown) | – | -17 | 12 |
| CNC(=O)Nc1nc(N)c(-c2nc(-c3cccc(NC(=O)[C@@]45C[C@@H]6C[C@@H]4CC6(C)C5)c3)cs2)s1 | – | -20 | 2 |
| CNC(=O)Nc1nc(N)c(-c2nc(-c3cccc(NC(=O)Cc4cccnc4)c3)cs2)s1 | – | -7 | -27 |

| Structure (SMILES) | inhibition at 0.15 µM [%] | inhibition at 0.001 µM [%] | inhibition at 0.01 µM [%] |
| --- | --- | --- | --- |
| CNC(=O)Nc1nc(N)c(-c2nc(-c3cccc(NC(=O)Cc4cc(F)ccc4F)c3)cs2)s1 | – | -1 | 4 |
| CNC(=O)Nc1nc(N)c(-c2nc(-c3cccc(NC(=O)Cc4cc(F)cc(F)c4)c3)cs2)s1 | – | -5 | -10 |
| CNC(=O)Nc1nc(N)c(-c2nc(-c3cccc(NC(=O)Cc4cccc(OC)c4)c3)cs2)s1 | – | 25 | -31 |
| CNC(=O)Nc1nc(N)c(-c2nc(-c3cccc(NC(=O)C4C[C@H]5C=C[C@@H]4C5)c3)cs2)s1 (stereo partly shown) | – | 4 | -18 |
| CNC(=O)Nc1nc(N)c(-c2nc(-c3cccc(NC(=O)CCc4ccc(C)cc4)c3)cs2)s1 | – | 2 | – |
| CNC(=O)Nc1nc(N)c(-c2nc(-c3cccc(NC(=O)c4cc(C)on4)c3)cs2)s1 | – | 14 | 10 |
| CNC(=O)Nc1nc(N)c(-c2nc(-c3cccc(NC(=O)CCC(=O)N4CCCC4)c3)cs2)s1 | – | 6 | -10 |
| CCc1ccccc1C(=O)Nc1cccc(-c2csc(-c3sc(NC(=O)NC)nc3N)n2)c1 | – | 0 | 106 |
| CNC(=O)Nc1nc(N)c(-c2nc(-c3cccc(NC(=O)Cn4ccc5ccccc54)c3)cs2)s1 | – | 4 | -15 |
| CNC(=O)Nc1nc(N)c(-c2nc(-c3cccc(NC(=O)C4=CCCN(C)C4)c3)cs2)s1 | – | 2 | 43 |
| CNC(=O)Nc1nc(N)c(-c2nc(-c3cccc(NC(=O)C4CCCN4C(C)=O)c3)cs2)s1 (stereo not shown) | – | 3 | 27 |
| CNC(=O)Nc1nc(N)c(-c2nc(-c3cccc(NC(=O)/C=C/C4C[C@H]5C=C[C@@H]4C5)c3)cs2)s1 (stereo partly shown) | – | 11 | 50 |
| CCC(C(=O)Nc1cccc(-c2csc(-c3sc(NC(=O)NC)nc3N)n2)c1)c1ccccc1C (stereo not shown) | – | -8 | 9 |
| CNC(=O)Nc1nc(N)c(-c2nc(-c3cccc(NC(=O)c4ccc(C(C)(C)C)o4)c3)cs2)s1 | – | 2 | 69 |
| CNC(=O)Nc1nc(N)c(-c2nc(-c3cccc(NC(=O)/C=C(\C)c4ccccc4C)c3)cs2)s1 | – | -2 | 20 |
| CNC(=O)Nc1nc(N)c(-c2nc(-c3cccc(NC(=O)c4ccc(C(C)=O)s4)c3)cs2)s1 | – | 49 | 97 |
| CNC(=O)Nc1nc(N)c(-c2nc(-c3cccc(NC(=O)C(C)ON=C(C)C)c3)cs2)s1 (stereo not shown) | – | 6 | -7 |
| CNC(=O)Nc1nc(N)c(-c2nc(-c3cccc(NC(=O)/C=C/C(=O)NCC4CC4)c3)cs2)s1 | – | 10 | 1 |
| CNC(=O)Nc1nc(N)c(-c2nc(-c3cccc(NC(=O)c4cc(OC)ccc4C#N)c3)cs2)s1 | – | -18 | -1 |
| CNC(=O)Nc1nc(N)c(-c2nc(-c3cccc(NC(=O)c4cc(C)cc(=O)o4)c3)cs2)s1 | – | 5 | 62 |
| CNC(=O)Nc1nc(N)c(-c2nc(-c3cccc(NC(=O)Cc4cn(C)cn4)c3)cs2)s1 | – | 34 | 42 |

| Structure (SMILES) | inhibition at 0.15 µM [%] | inhibition at 0.001 µM [%] | inhibition at 0.01 µM [%] |
| --- | --- | --- | --- |
| CNC(=O)Nc1nc(N)c(-c2nc(-c3cccc(NC(=O)CC(C)(C)NC(C)=O)c3)cs2)s1 | – | 4 | -11 |
| CCO/C(C)=C/C(=O)Nc1cccc(-c2csc(-c3sc(NC(=O)NC)nc3N)n2)c1 | – | 7 | 47 |
| CNC(=O)Nc1nc(N)c(-c2nc(-c3cccc(NC(=O)[C@@H]4C[C@H](C)[C@H](C)[C@@H]4C)c3)cs2)s1 | – | -11 | -21 |
| C/C=C/C(=O)Nc1cccc(-c2csc(-c3sc(NC(=O)NC)nc3N)n2)c1 | – | -1 | -7 |
| CNC(=O)Nc1nc(N)c(-c2nc(-c3cccc(NC(=O)CC4=CCCCC4)c3)cs2)s1 | – | 29 | 82 |
| CNC(=O)Nc1nc(N)c(-c2nc(-c3cccc(NC(=O)C(=O)C4=CCCCC4)c3)cs2)s1 | – | 17 | 19 |
| CNC(=O)Nc1nc(N)c(-c2nc(-c3cccc(NC(=O)C4CNC(=O)N4)c3)cs2)s1 (stereo not shown) | – | 11 | 18 |
| CNC(=O)Nc1nc(N)c(-c2nc(-c3cccc(NC(=O)C4CC4C)c3)cs2)s1 (stereo not shown) | – | -12 | 0 |
| CNC(=O)Nc1nc(N)c(-c2nc(-c3cccc(NC(=O)c4cc(F)ccc4C)c3)cs2)s1 | – | -1 | 78 |
| CNC(=O)Nc1nc(N)c(-c2nc(-c3cccc(NC(=O)C4CCSCN4C)c3)cs2)s1 (stereo not shown) | – | 1 | 62 |
| CNC(=O)Nc1nc(N)c(-c2nc(-c3cccc(NC(=O)[C@@H]4CCC[C@@H]4O)c3)cs2)s1 | – | 15 | 13 |
| CNC(=O)Nc1nc(N)c(-c2nc(-c3cccc(NC(=O)C4CCC(=O)CC4)c3)cs2)s1 | – | -2 | 12 |
| CNC(=O)Nc1nc(N)c(-c2nc(-c3cccc(NC(=O)c4ccccc4C(C)C)c3)cs2)s1 | – | -9 | 26 |
| CNC(=O)Nc1nc(N)c(-c2nc(-c3cccc(NC(=O)[C@@H](O)C(C)C)c3)cs2)s1 | – | 16 | 4 |
| CCn1nc(C)cc1C(=O)Nc1cccc(-c2csc(-c3sc(NC(=O)NC)nc3N)n2)c1 | – | 17 | 41 |
| CNC(=O)Nc1nc(N)c(-c2nc(-c3cccc(NC(=O)C4CC(=O)N(C)C4)c3)cs2)s1 (stereo not shown) | – | 21 | -4 |
| CNC(=O)Nc1nc(N)c(-c2nc(-c3cccc(NC(=O)/C=C/c4ccccc4OC)c3)cs2)s1 | – | -34 | 46 |
| CNC(=O)Nc1nc(N)c(-c2nc(-c3cccc(NC(=O)C4CC5C=CCC(C5)C4)c3)cs2)s1 (stereo not shown) | – | 1 | 55 |
| CNC(=O)Nc1nc(N)c(-c2nc(-c3cccc(NC(=O)C4CC5C=CC4CC5)c3)cs2)s1 (stereo not shown) | – | 54 | 45 |
| CNC(=O)Nc1nc(N)c(-c2nc(-c3cccc(NC(=O)C4CC5CC(O)C4C5)c3)cs2)s1 (stereo not shown) | – | 20 | 19 |
| CNC(=O)Nc1nc(N)c(-c2nc(-c3cccc(NC(=O)C4C[C@@H]5C[C@H]4CCC5O)c3)cs2)s1 (stereo partly shown) | – | 14 | 21 |
